Literature values, collected in PMC9998351 (Steroids, 2023).

Tested on: CRPC CWR22Rv1 xenograft tumors
Settings: CWR22Rv1 xenograft; 2 at 7.53-fold lower equimolar dose than Gal; p < 0.01; ref [26]; cited from earlier work

SMILES: C[C@]12CC[C@H](O)CC1=CC[C@@H]1[C@@H]2CC[C@]2(C)C(n3cnc4ccccc43)=CC[C@@H]12 [Gal, Galeterone, reference compound]
- Suppression of tumor growth: 47%
